The values that follow come from patent publication US11083732B2, “Use of negative modulators of GABA receptors containing alpha5 subunits as fast acting antidepressants” (University of Maryland, Baltimore, priority 2014, dated 2021).

Test [1] relates to rats subjected to chronic restraint stress. The test can be described thus: Social interaction test (SIT) after chronic restraint stress (CRS). As to conditions: 10 days CRS; L-655,708 0.7 mg/kg i.p.; 24 hrs post-injection; vs baseline. The test is classed as in vivo, rat. The source says:
MRK-016 rapidly reverses loss of sucrose preference and social interaction behaviors after chronic restraint stress (FIG. 9). […] This persisted for 7 days despite further stress exposure. and in the same animals after an additional week of CRS and 7 days after the injection of MRK-016.
Chronic restraint stress (CRS). Male Sprague Dawley rats (4-5 weeks-old; Harlan Laboratories) were placed in appropriately sized restraint tubes, highly restricting their movement for periods of four hours in a brightly lit lab, every day for ten days during the light phase of their diurnal cycle (Lim et al., 2012).
Social interaction test (SIT). As described previously (Berton et al., 2006), rats were placed in a plastic enclosure (82×82 cm) with a 5×5 grid of squares (16.4×16.4 cm) visible underneath the clear plastic flooring. A small translucent perforated plastic box (20×16 cm) was placed against the center of one wall of the arena. During the testing conditions white overhead fluorescent lighting was used to illuminate the arena. A video camera positioned 170 cm above the floor of the arena was used to track the movements of the rats during the experiment.
(§1) Each test consisted of a “target-absent” trial followed by a “target-present” trial. During testing, an individual test rat was placed in the center of the arena and, after 30s of adaptation, the rat's movements were recorded with the video camera for 2.5 minutes. […]
(§2) Results were quantified as the percentage of time spent in the “interaction zone” (the five grid squares immediately surrounding the plastic cage) as measured for both the “target-absent” and “target-present” trials. […]
Several hedonic behaviors in rodents are sensitive to chronic stress and are restored by chronic, but not acute, administration of SSRIs, providing one means to screen for potential antidepressant compounds. First, it was determined whether L-655,708 would rapidly (<24 hrs) restore normal hedonic behavior following chronic restraint stress (Watanabe et al., 1992; Lim et al., 2012), consistent with the rapid antidepressant-like actions of ketamine (Li et al., 2011). […]

The subject of test [2] is forebrain binding sites. As to conditions: 0.7 mg/kg i.p.; Atack et al., 2005; cited from earlier work.
The subject of test [3] is str. pyramidale of area CA1 and NAc shell. Kind of test: In vivo field potential recording of oscillatory activity. Details: species or system rat. The method, then:
A1. A 60 min period of continuous recording of spontaneous field potential activity is made under dim illumination. Rats are then injected with either L-665,708 or vehicle, and placed back in the tube for an additional 60-90 min of recording. Discrete fast Fourier transforms are made on 60s-long recording segments for preparation of spectrograms. Oscillation power (area under the curve) is integrated for different frequency bandwidths for power spectral density plots (Θ=3-7 Hz; α=8-12 Hz; β=13-29 Hz; γ=30-80 Hz) (Buhl et al., 1998; Raver et al., 2013). Just as with ketamine (e.g. Kittleberger et al., 2012; Lazarewicz et al., 2010; Hinman et al., 2013), in specific embodiments increases in power are observed by pairwise comparison of spectra before and after drug injection. Initial studies are consistent with this consideration (FIG. 2).
Electrophysiology in vivo. Tungsten microelectrodes (tip impedances=0.5M,Ω) are implanted stereotaxically in str. pyramidale of area CA 1, layer II of the EC, layer V of the medial PFC, or the shell of the NAc and secured to the skull with cement. After implantation, rats will be habituated to stay still under light restraint (a metal pole connecting the headstage to a rigid arm) in a narrow tube. On-going electrical activity will be recorded in the absence of anesthesia. Field potentials will be analyzed using Spike2 software.

For test [4], the system named is rats subjected to chronic unpredictable stress. The test can be described thus: Sucrose preference test (SPT) after chronic unpredictable stress (CUS). The test is classed as in vivo, rat. As to conditions: L-655,708 24 hours earlier. The method, then: Sucrose preference test. Rats are administered a sucrose preference test before chronic unpredictable stress or no stress. The left bar of the pairs (black) reflects CUS rats and the right bar of the pairs (white) reflects unstressed rats.
(§3) Chronic unpredictable stress (CUS). Male Sprague-Dawley rats (4-5 weeks-old; Harlan Laboratories) were randomly divided into control and CUS groups. Rats in the CUS group were individually housed. CUS animals were treated with two mild stressors every day for 5-6 weeks during their light phase (Willner et al., 1987). The stressors were randomly cycled to enhance unpredictability. The stressors were: forced swim, in which rats were placed in a basin containing cold water for 5 minutes; strobe lighting, in otherwise total darkness for 30 minutes; restraint, during which rats were put into appropriately sized restraint tubes for 30 minutes; exposure to white noise for 30 minutes; and food or water deprivation for 14 hours spanning the dark phase.
Sucrose preference test (SPT). Rats were given a choice between two bottles containing tap water or a 1% sucrose solution (Rygula et al., 2006). Testing was conducted overnight (16 hours), including the full duration of their dark phase. […] Sucrose preference was calculated as amount of the sucrose solution consumed as a percentage of the total amount of liquid consumed.

Test [5] has the same test system. Kind of test: Social interaction test (SIT) after chronic unpredictable stress (CUS). It is filed as in vivo, rat. The method, then: as §3
Social interaction test (SIT). […]
as §1, §2

Entries after “also recorded” stand apart in the source; their conditions may differ.

In the case of `CCOC(=O)c1ncn2c1[C@@H]1CCCN1C(=O)c1cc(OC)ccc1-2` [L-655,708, ethyl (13aS)-7-methoxy-9-oxo-11, 12,13,13 a-terahydro-9H-imidazo[1,5-a]pyrrolo[2,1-c] [1,4]benzodiazepine-1-carboxylate], in test [1], the social interaction ratio entry is “not significantly different than baseline”. Also, the “occupancy of forebrain binding sites” value in test [2] was “about 70%”. Further, in test [3] (CA1 and NAc shell), the “persistence of increase in oscillatory activity” value was “persisted for more than one hour”. Besides, in test [3] (str. pyramidale of area CA1 and NAc shell, after injection), the “oscillatory activity (theta and beta frequency bands)” value is reported as “rapid increase”. In addition, in test [4], the sucrose preference entry was “restores the behavior; also recorded: restored sucrose preference”. Besides, in test [5] (CUS 4 weeks plus one week, L-655,708 0.7 mg/kg i.p. 24 hrs earlier), the “number of CUS rats in which social interaction was reversed” value was 14 of 18. For the same compound, the social interaction result in test [5] (CUS rats, single injection of L-655,708 0.7 mg/kg i.p. 24 hrs earlier) is “restores the behavior; also recorded: reversed to levels that were not significantly different than pre-stress baseline”.
